# Results published in patent US20130052173A1, “USE OF MENADIONE AND DERIVATIVES THEREOF FOR TREATING BIOMASSES” (priority 2010, published 2013).
# What was measured:
# Type in all cases: cell-based
# Lactobacillus plantarum = assay: Pasteurized 20% molasses solution inoculated with Lactobacillus plantarum; details: 48 hours at 25° C., MSB 50 ppm, MSB-C 100 ppm; for Lactic acid / Ufc/l (bacterial load): virginiamycin 2 mg/l
# Method: A 20% solution of molasses is pasteurized at 65° C. for 30 minutes. After cooling, five 50-ml parts are formed: of these, one is kept as a control and the remaining four each receive the addition of 1 ml of inoculum (Lp) of Lactobacillus plantarum (1×10^5 ufc/ml). The third part then receives the addition of 2 mg/l of virginiamycin, the fourth part receives the addition of 50 ppm of menadione sodium bisulfite, while the fifth part receives the addition of 100 ppm of a mixture of menadione sodium bisulfite and sodium bisulfite known as MSB-C (composition of mixture: 65% MSB and 35% sodium bisulfite).
# Lactobacillus fermentum = assay: Bioethanol fermentation of 33% corn flour dispersion with Saccharomyces cerevisiae contaminated with Lactobacillus fermentum; details: for Ethanol / Glucose (residual, non-fermented) / Lactic acid: 72 hours at 32° C., Sc + Lf inoculum, Virg 2 ppm, MSB 20 ppm
# Method: The capacity of menadione sodium bisulfite to contrast the negative effect of bacterial contamination on the production of bioethanol is tested by using a 33% aqueous dispersion of corn flour, which is a typical substrate used in the bioethanol industry.
# Using this dispersion, four parts of 40 ml each are prepared and are placed in four separate flasks (procedure described by Bischoff K. M. et al. in Biotechnology and Bioengineering 2009, 103, 117-122).
# Flask 1 (witness) receives the addition of 0.5 ml of inoculum (Sc) of Saccharomyces cerevisiae (1×10^7 ufc/ml). Flask 2 receives the addition of 0.5 ml of inoculum (Sc) of Saccharomyces and 0.5 ml of inoculum (Lf) of Lactobacillus fermentum (1×10^8 ufc/ml); flask 3 receives the addition of 0.5 ml of inoculum (Sc) of Saccharomyces, 0.5 ml of inoculum (Lf) of Lactobacillus fermentum and 0.5 ml of a solution of virginiamycin with such a titer as to have, in the flask, a concentration of antibiotic equal to 2 mg/l. Flask 4 receives the addition of 0.5 ml of inoculum (Sc) of Saccharomyces, 0.5 ml of inoculum (Lf) of Lactobacillus fermentum and 0.5 ml of a solution of menadione sodium bisulfite (1600 mg/l ) with such a titer as to have in the flask a concentration of MSB equal to 20 ppm by weight.
# Then the four flasks are kept under bland agitation and at the temperature of 32° C. for 72 hours. At the end of the incubation period, the four parts are analyzed for their content of ethanol, glucose and lactic acid.
# Saccharomyces cerevisiae = assay: Growth of Saccharomyces cerevisiae strains in liquid biomass containing menadione
# [1] = test system: broad spectrum of microorganisms, including yeasts; assay: Biocidal activity in a liquid biomass; details: weight of menadione/total weight of the biomass and of the compound
# Oenococcus oeni = assay: Pasteurized 30% glycerol solution inoculated with Oenococcus oeni; details: 48 hours at 25° C.; Penicillin 10 mg/l, emulsion A 20 mg/l, emulsion B 150 mg/l
# Method: A 30% solution of glycerol is pasteurized at 65° C. for 30 minutes. After cooling, four 50-ml parts are formed, each of which receives the addition of 1 ml of inoculum (00) of Oenococcus oeni, so as to have a bacterial load of 1×10^5 ufc/l.
# The first part is kept as a control; the second part receives the addition of 10 mg/l of Penicillin (Pen); the third part receives the addition of 20 mg/l of an emulsion A of menadione (composition: 50% menadione, 50% ethanol); the fourth part receives the addition of 150 mg/l of an emulsion B of menadione (composition: menadione 10%, ricinoleate 90%).
Compound,Lactic acid (Lactobacillus plantarum) [g/L],Ufc/l (bacterial load) (Lactobacillus plantarum),Effect on the bacterial inoculum (Lactobacillus plantarum),Ethanol (Lactobacillus fermentum) [g/L],"Glucose (residual, non-fermented) (Lactobacillus fermentum) [g/L]",Lactic acid (Lactobacillus fermentum) [g/L],"Effect on the bacterial inoculum (Lactobacillus fermentum; flask 4, MSB 20 ppm)","Effect on growth of the yeast (Lactobacillus fermentum; flask 4, MSB 20 ppm, Saccharomyces cerevisiae)",Menadione concentration that allows growth of all the tested strains (Saccharomyces cerevisiae; liquid biomass),Growth response of Saccharomyces cerevisiae (Saccharomyces cerevisiae; menadione concentration between 400 and 500 ppm),Concentration from which biocidal activity is exhibited [1],Ufc/l (bacterial load) (Oenococcus oeni)
"CC1(S(=O)(=O)[O-])CC(=O)c2ccccc2C1=O.[Na+] (centres unmarked) [MSB, menadione sodium bisulfite]",0.40,<1 × 10^3 Ufc/l,inhibiting completely the bacterial inoculum,111.3,6.2,0.5,able to inhibit the bacterial inoculum,has not harmed the growth of the yeast,–,–,–,–
"CC1=CC(=O)c2ccccc2C1=O [menadione, 2-methylnaphthalene-1,4-dione]",–,–,–,–,–,–,–,–,below 400 ppm,varies depending on the tested strains,at least 500 ppm,–
Penicillin,–,–,–,–,–,–,–,–,–,–,–,<1 × 10^2 Ufc/l
virginiamycin [reference compound],0.15,<1 × 10^2 Ufc/l,–,108.2,6.4,0.4,–,–,–,–,–,–
